# According to US10023484B2, “Use of peracetic acid/hydrogen peroxide and peroxide-reducing agents for treatment of drilling fluids, frac fluids, flowback water and disposal water” (Ecolab USA Inc., priority 2012, dated 2018):
# Experiments:
# fracking water mixtures [1] = assay: Micro efficacy baseline in fracking water mixtures without catalase (Example 3); assay type: cell-based
# Experimental: The impact of water pretreatment with 500 ppm of the EnviroSan product (75 ppm POAA) on micro efficacy in various fracking water mixtures were evaluated. The example represents a baseline data set of various water treatment options according to the invention. Table 2 and FIG. 3 show the average log reduction in various slick water treatments with varying ppm PAA (without any catalase treatment or pretreatment), representing a baseline data set.
# fracking water mixtures [2] = assay: Micro efficacy: POAA dosed for 30 ppm residual versus POAA pretreated with catalase (Example 8); assay type: cell-based
# Experimental: A micro efficacy comparison of POAA added at levels to target 30 ppm POAA residuals at 5 minutes versus POAA pretreated with catalase was conducted as set forth in Table 12.
# [3] = Titration of POAA consumption in water mixtures (Example 6); assay type: physicochemical; details: 1 minute
# [4] = Effect of catalase and treatment sequence on peracid stability in 80/20 water blends (Example 10); assay type: physicochemical; details: theoretical initial POAA 82 ppm
# Excerpt: The effect of catalase on the peracid stability within treated waters was further evaluated. Water blends of 80/20 (80% fresh water/20% produced water) were employed to analyze the impact on various treatment sequences set forth in Table 14.
# Due to the efficacious results shown in FIG. 15, the same methods were used to further evaluate a pretreatment using a lower concentration of the catalase as shown in Table 15.
# [5] = system: Pseudomonas aeruginosa ATCC 15442; assay: Micro efficacy at 30 ppm POAA EnviroSan with/without catalase, with/without water pretreatment (Example 7); assay type: cell-based; details: no pretreatment, 30 ppm PAA
# Experimental: Additional micro efficacy performance was evaluated to confirm the improved micro efficacy observed in Example 6 when using increasing amounts of produced water with the dosing static initial concentrations of POAA (30 ppm or 40 ppm) with catalase. Improved micro efficacy with increased amounts of produced water present in a mixture is a highly counterintuitive result and was unexpected. Under normal conditions, it would be expected to have decreased micro efficacy as the amount of produced water (e.g. recycled) increases and the amount of POAA remains static as a result of the increased contamination found in produced water as opposed to fresh water sources. As a result, subsequent evaluation observed the activity of the water itself against a spiked culture of P. aeruginosa over a 1 hour exposure period to determine whether the produced water itself has an antimicrobial present.
# All water mixtures were treated with an initial concentration of 30 ppm POAA EnviroSan, both with and without the addition of catalase. The data set evaluates whether there is a significant difference in micro activity generated between treatments of EnviroSan alone vs. EnviroSan pre-reduced with catalase.
# All ratios of fracking water mixtures tested (100/0, 90/10, 80/20 & 70/30) were freshly mixed solutions, as well as solutions mixed and pretreated with 500 ppm EnviroSan product more than 1 hour before the start of the micro evaluation, in order to observe if a pretreatment step is of value for micro performance compared to those mixtures not pretreated. The test system (P. aeruginosa and natural water) described in Example 5 was again utilized. Water mixtures as outlined in Table 9 were provided (showing the percentage of 100 mL of each water sample type).
# The testing methods of Example 5 were utilized for the chemically treated water samples, differing only in the combination of the 10 mL inoculated water mixtures with appropriate volumes of the EnviroSan with or without catalase to achieve 30 ppm POAA residual to each test tube in timed intervals and mixed. The methods of Example 5 were employed to make the EnviroSan with catalase stock solutions. In comparison, for the water samples that were not chemically treated, 9.9 mL of test water mixture was dispensed into 2 individual test tubes. 0.10 mL of an approximate 10^8 CFU/mL culture of P. aeruginosa was added in timed intervals and mixed thoroughly. Then 1 mL samples were neutralized in 9 mL of 0.5% sodium thiosulfate, followed by serial dilution and enumeration after 2.5 minutes, 5 minutes and 60 minute exposure times.
# In addition, data for enumeration of water samples for antimicrobial activity against P. aeruginosa over 60 minutes exposure are also summarized in Table 10.
# [6] = Pretreated, catalase CA 400 5.8 ppm
# [7] = Simult. Add, catalase CA 400 10 ppm
# [8] = Simult. Add, catalase CA 400 100 ppm
smiles,measurement,setting,value
"CC(=O)OO [POAA, peracetic acid]",Avg. Log10 Reduction,"fracking water mixtures [1]; 75 ppm PAA pretreatment, 10% reuse H2O, 29 ppm POAA, NO catalase, 2.5 minutes",6.45
same,Avg. Log10 Reduction,"fracking water mixtures [1]; 75 ppm PAA pretreatment, 10% reuse H2O, 29 ppm POAA, NO catalase, 5 minutes",6.71
same,Avg. Log10 Reduction,"fracking water mixtures [1]; 75 ppm PAA pretreatment, 20% reuse H2O, 47 ppm PAA, NO catalase, 2.5 minutes",6.42
same,Avg. Log10 Reduction,"fracking water mixtures [1]; 75 ppm PAA pretreatment, 20% reuse H2O, 47 ppm PAA, NO catalase, 5 minutes",6.55
same,Avg. Log10 Reduction,"fracking water mixtures [1]; 75 ppm PAA pretreatment, 30% reuse H2O, 86 ppm POAA, NO catalase, 2.5 minutes",6.47
same,Avg. Log10 Reduction,"fracking water mixtures [1]; 75 ppm PAA pretreatment, 30% reuse H2O, 86 ppm POAA, NO catalase, 5 minutes",6.41
same,Avg. Log10 Reduction,"fracking water mixtures [1]; no holding tank pretreatment, 0% reuse H2O, 22 ppm POAA, 2.5 minutes",5.53
same,Avg. Log10 Reduction,"fracking water mixtures [1]; no holding tank pretreatment, 0% reuse H2O, 22 ppm POAA, 5 minutes",5.75
same,Avg. Log10 Reduction,"fracking water mixtures [1]; no pretreatment, 10% reuse H2O, 36 ppm POAA, 2.5 minutes",4.32
same,Avg. Log10 Reduction,"fracking water mixtures [1]; no pretreatment, 10% reuse H2O, 36 ppm POAA, 5 minutes",4.72
same,Avg. Log10 Reduction,"fracking water mixtures [1]; no pretreatment, 20% reuse H2O, 86 ppm POAA, 2.5 minutes",4.57
same,Avg. Log10 Reduction,"fracking water mixtures [1]; no pretreatment, 20% reuse H2O, 86 ppm POAA, 5 minutes",4.64
same,Avg. Log10 Reduction,"fracking water mixtures [1]; no pretreatment, 30% reuse H2O, 138 ppm POAA, 2.5 minutes",4.12
same,Avg. Log10 Reduction,"fracking water mixtures [1]; no pretreatment, 30% reuse H2O, 138 ppm POAA, 5 minutes",5.00
same,Avg. Log10 Reduction,"fracking water mixtures [2]; 10% reuse H2O, 30 ppm PAA, Catalase, 2.5 minutes",5.29
same,Avg. Log10 Reduction,"fracking water mixtures [2]; 10% reuse H2O, 30 ppm PAA, Catalase, 5 minutes",5.96
same,Avg. Log10 Reduction,"fracking water mixtures [2]; 10% reuse H2O, 46 ppm PAA, NO Catalase, 2.5 minutes",4.32
same,Avg. Log10 Reduction,"fracking water mixtures [2]; 10% reuse H2O, 46 ppm PAA, NO Catalase, 5 minutes",4.72
same,Avg. Log10 Reduction,"fracking water mixtures [2]; 20% reuse H2O, 30 ppm PAA, Catalase, 2.5 minutes",5.73
same,Avg. Log10 Reduction,"fracking water mixtures [2]; 20% reuse H2O, 30 ppm PAA, Catalase, 5 minutes",6.36
same,Avg. Log10 Reduction,"fracking water mixtures [2]; 20% reuse H2O, 86 ppm PAA, NO Catalase, 2.5 minutes",4.57
same,Avg. Log10 Reduction,"fracking water mixtures [2]; 20% reuse H2O, 86 ppm PAA, NO Catalase, 5 minutes",4.64
same,Avg. Log10 Reduction,"fracking water mixtures [2]; 30% reuse H2O, 30 ppm PAA, Catalase, 2.5 minutes",5.30
same,Avg. Log10 Reduction,"fracking water mixtures [2]; 30% reuse H2O, 30 ppm PAA, Catalase, 5 minutes",5.98
same,Avg. Log10 Reduction,"fracking water mixtures [2]; 30% reuse H2O, 138 ppm PAA, NO Catalase, 2.5 minutes",4.12
same,Avg. Log10 Reduction,"fracking water mixtures [2]; 30% reuse H2O, 138 ppm PAA, NO Catalase, 5 minutes",5.00
same,Actual Titrated Concentration (ppm POAA),"[3]; 70% Fresh/30% Produced, desired 30 ppm POAA",7 ppm
same,Actual Titrated Concentration (ppm POAA),"[3]; 70% Fresh/30% Produced, desired 40 ppm POAA",12 ppm
same,Actual Titrated Concentration (ppm POAA),"[3]; 80% Fresh/20% Produced, desired 30 ppm POAA",13 ppm
same,Actual Titrated Concentration (ppm POAA),"[3]; 80% Fresh/20% Produced, desired 40 ppm POAA",21 ppm
same,Actual Titrated Concentration (ppm POAA),"[3]; 90% Fresh/10% Produced, desired 30 ppm POAA",21 ppm
same,Actual Titrated Concentration (ppm POAA),"[3]; 90% Fresh/10% Produced, desired 40 ppm POAA",30 ppm
same,POAA Meas'd. at 1 min.,"[4]; NA, catalase 0 ppm",56 ppm
same,POAA Meas'd. at 4 min.,"[4]; NA, catalase 0 ppm",31 ppm
same,POAA Meas'd. at 5 min.,"[4]; NA, catalase 0 ppm",23 ppm
same,POAA Meas'd. at 6 min.,"[4]; NA, catalase 0 ppm",17 ppm
same,POAA Meas'd. at 1 min.,[4]; [6],76 ppm
same,POAA Meas'd. at 4 min.,[4]; [6],75 ppm
same,POAA Meas'd. at 5 min.,[4]; [6],75 ppm
same,POAA Meas'd. at 6 min.,[4]; [6],75 ppm
same,POAA Meas'd. at 1 min.,[4]; [7],63 ppm
same,POAA Meas'd. at 4 min.,[4]; [7],34 ppm
same,POAA Meas'd. at 5 min.,[4]; [7],31 ppm
same,POAA Meas'd. at 6 min.,[4]; [7],26 ppm
same,POAA Meas'd. at 1 min.,[4]; [8],66 ppm
same,POAA Meas'd. at 4 min.,[4]; [8],61 ppm
same,POAA Meas'd. at 5 min.,[4]; [8],65 ppm
same,POAA Meas'd. at 6 min.,[4]; [8],58 ppm
same,Avg. Log10 Reduction,"[5]; 0% reuse H2O, Catalase, 2.5 minutes",4.62
same,Avg. Log10 Reduction,"[5]; 0% reuse H2O, Catalase, 5 minutes",6.22
same,Avg. Log10 Reduction,"[5]; 0% reuse H2O, NO Catalase, 2.5 minutes",4.64
same,Avg. Log10 Reduction,"[5]; 0% reuse H2O, NO Catalase, 5 minutes",6.32
same,Avg. Log10 Reduction,"[5]; 10% reuse H2O, Catalase, 2.5 minutes",5.29
same,Avg. Log10 Reduction,"[5]; 10% reuse H2O, Catalase, 5 minutes",5.96
same,Avg. Log10 Reduction,"[5]; 10% reuse H2O, NO Catalase, 2.5 minutes",3.09
same,Avg. Log10 Reduction,"[5]; 10% reuse H2O, NO Catalase, 5 minutes",3.91
same,Avg. Log10 Reduction,"[5]; 20% reuse H2O, Catalase, 2.5 minutes",5.73
same,Avg. Log10 Reduction,"[5]; 20% reuse H2O, Catalase, 5 minutes",6.36
same,Avg. Log10 Reduction,"[5]; 20% reuse H2O, NO Catalase, 2.5 minutes",2.19
same,Avg. Log10 Reduction,"[5]; 20% reuse H2O, NO Catalase, 5 minutes",2.38
same,Avg. Log10 Reduction,"[5]; 30% reuse H2O, Catalase, 2.5 minutes",5.30
same,Avg. Log10 Reduction,"[5]; 30% reuse H2O, Catalase, 5 minutes",5.98
same,Avg. Log10 Reduction,"[5]; 30% reuse H2O, NO Catalase, 2.5 minutes",1.88
same,Avg. Log10 Reduction,"[5]; 30% reuse H2O, NO Catalase, 5 minutes",1.93
